Experimental data reported in patent US8143288B2, “Inhibitors of HCV replication” (priority 2005, dated 2012).

Each compound was assayed on HCV 1b-377-neo replicon cells (assay: HCV replicon FRET assay). Conditions: Hepatitis C virus; HCV replicon; read-out: Activity (EC50).
Format: cell-based
In the case of `CSc1ncccc1C(=O)N1CCC[C@H]1C(=O)Nc1ccc(/C=C/c2ccc(NC(=O)[C@@H]3CCCN3C(=O)c3cccnc3SC)cc2)cc1` [Example 192], the EC50 is reported as 100 to 1000 nM.
`COc1ccc(C(=O)N2CCC[C@H]2C(=O)Nc2ccc(/C=C/c3ccc(NC(=O)[C@@H]4CCCN4C(=O)c4ccc(OC)nc4OC)cc3)cc2)c(OC)n1` [Example 193] gave an EC50 of 1000 to 10000 nM.
In the case of `Cc1nc(C(F)(F)F)ccc1C(=O)N1CCC[C@H]1C(=O)Nc1ccc(/C=C/c2ccc(NC(=O)[C@@H]3CCCN3C(=O)c3ccc(C(F)(F)F)nc3C)cc2)cc1` [Example 194], the EC50 is reported as 100 to 1000 nM.
`O=C(Nc1ccc(/C=C/c2ccc(NC(=O)[C@@H]3CCCN3C(=O)c3ccc(C(F)(F)F)nc3Cl)cc2)cc1)[C@@H]1CCCN1C(=O)c1ccc(C(F)(F)F)nc1Cl` [Example 195] was tested, and the EC50 was 1000 to 10000 nM.
For `O=C(Nc1ccc(/C=C/c2ccc(NC(=O)[C@@H]3CCCN3C(=O)c3cccnc3Sc3ccccc3)cc2)cc1)[C@@H]1CCCN1C(=O)c1cccnc1Sc1ccccc1` [Example 196], the EC50 was 1000 to 10000 nM.
Compound `CCc1ccncc1C(=O)N1CCC[C@H]1C(=O)Nc1ccc(/C=C/c2ccc(NC(=O)[C@@H]3CCCN3C(=O)c3cnccc3CC)cc2)cc1` [Example 197] has an EC50 of 100 to 1000 nM.
`Cc1ccsc1C(=O)N1CCC[C@H]1C(=O)Nc1ccc(/C=C/c2ccc(NC(=O)[C@@H]3CCCN3C(=O)c3sccc3C)cc2)cc1` [Example 198] was tested, and the EC50 was 100 to 1000 nM.
`Cc1nnsc1C(=O)N1CCC[C@H]1C(=O)Nc1ccc(/C=C/c2ccc(NC(=O)[C@@H]3CCCN3C(=O)c3snnc3C)cc2)cc1` [Example 199] showed an EC50 of 0.1 to 90 nM.
In the case of `Cc1ccoc1C(=O)N1CCC[C@H]1C(=O)Nc1ccc(/C=C/c2ccc(NC(=O)[C@@H]3CCCN3C(=O)c3occc3C)cc2)cc1` [Example 200], the EC50 is reported as 100 to 1000 nM.
Work on `Cc1nocc1C(=O)N1CCC[C@H]1C(=O)Nc1ccc(/C=C/c2ccc(NC(=O)[C@@H]3CCCN3C(=O)c3conc3C)cc2)cc1` [Example 201] yielded an EC50 of 0.1 to 90 nM.
For `Cc1noc(C)c1C(=O)N1CCC[C@H]1C(=O)Nc1ccc(/C=C/c2ccc(NC(=O)[C@@H]3CCCN3C(=O)c3c(C)noc3C)cc2)cc1` [Example 202], the EC50 was 100 to 1000 nM.
For `Cc1nc(C)c(C(=O)N2CCC[C@H]2C(=O)Nc2ccc(/C=C/c3ccc(NC(=O)[C@@H]4CCCN4C(=O)c4sc(C)nc4C)cc3)cc2)s1` [Example 203], the EC50 was 100 to 1000 nM.
`Cc1onc(-c2ccccc2)c1C(=O)N1CCC[C@H]1C(=O)Nc1ccc(/C=C/c2ccc(NC(=O)[C@@H]3CCCN3C(=O)c3c(-c4ccccc4)noc3C)cc2)cc1` [Example 204] was tested, and the EC50 was 0.1 to 90 nM.
`CCc1cccc(CC)c1C(=O)N1CCC[C@H]1C(=O)Nc1ccc(/C=C/c2ccc(NC(=O)[C@@H]3CCCN3C(=O)c3c(CC)cccc3CC)cc2)cc1` [Example 205] gave an EC50 of 1000 to 10000 nM.
For `CCc1cccc(C)c1C(=O)N1CCC[C@H]1C(=O)Nc1ccc(/C=C/c2ccc(NC(=O)[C@@H]3CCCN3C(=O)c3c(C)cccc3CC)cc2)cc1` [Example 206], the EC50 was 1000 to 10000 nM.
For `Cn1cc(C(=O)N2CCC[C@H]2C(=O)Nc2ccc(/C=C/c3ccc(NC(=O)[C@@H]4CCCN4C(=O)c4cn(C)c5ccccc45)cc3)cc2)c2ccccc21` [Example 207], the EC50 was 100 to 1000 nM.
With `CC(C)(C)OC(=O)n1cc(C(=O)N2CCC[C@H]2C(=O)Nc2ccc(/C=C/c3ccc(NC(=O)[C@@H]4CCCN4C(=O)c4cn(C(=O)OC(C)(C)C)c5ccccc45)cc3)cc2)c2ccccc21` [Example 208] the EC50 was 1000 to 10000 nM.
`O=C(Nc1ccc(/C=C/c2ccc(NC(=O)[C@@H]3CCCN3C(=O)c3c[nH]c4ccccc34)cc2)cc1)[C@@H]1CCCN1C(=O)c1c[nH]c2ccccc12` [Example 209] gave an EC50 of 100 to 1000 nM.
With `O=C(Nc1ccc(/C=C/c2ccc(NC(=O)[C@@H]3CCCN3C(=O)c3c[nH]cn3)cc2)cc1)[C@@H]1CCCN1C(=O)c1c[nH]cn1` [Example 210] the EC50 was 1000 to 10000 nM.
`Cn1cncc1C(=O)N1CCC[C@H]1C(=O)Nc1ccc(/C=C/c2ccc(NC(=O)[C@@H]3CCCN3C(=O)c3cncn3C)cc2)cc1` [Example 211] showed an EC50 of 0.1 to 90 nM.
`O=C(Nc1ccc(/C=C/c2ccc(NC(=O)[C@@H]3CCCN3C(=O)c3n[nH]c4ccccc34)cc2)cc1)[C@@H]1CCCN1C(=O)c1n[nH]c2ccccc12` [Example 212] showed an EC50 of 0.1 to 90 nM.
`Cc1cccc(-n2cnc(C(=O)N3CCC[C@H]3C(=O)Nc3ccc(/C=C/c4ccc(NC(=O)[C@@H]5CCCN5C(=O)c5cn(-c6cccc(C)n6)cn5)cc4)cc3)c2)n1` [Example 213] showed an EC50 of 1000 to 10000 nM.
With `Cc1nc2sccn2c1C(=O)N1CCC[C@H]1C(=O)Nc1ccc(/C=C/c2ccc(NC(=O)[C@@H]3CCCN3C(=O)c3c(C)nc4sccn34)cc2)cc1` [Example 214] the EC50 was 0.1 to 90 nM.
Compound `O=C(Nc1ccc(/C=C/c2ccc(NC(=O)[C@@H]3C=CCN3C(=O)Cc3ccccn3)cc2)cc1)[C@@H]1C=CCN1C(=O)Cc1ccccn1` [Example 215] has an EC50 of 0.1 to 90 nM.
For `CC(=O)N1CC=C[C@H]1C(=O)Nc1ccc(/C=C/c2ccc(NC(=O)[C@@H]3C=CCN3C(=O)Cc3ccccn3)cc2)cc1` [Example 216], the EC50 was 0.1 to 90 nM.
`CC(=O)N1CC=C[C@H]1C(=O)Nc1ccc(/C=C/c2ccc(NC(=O)[C@@H]3C=CCN3C(C)=O)cc2)cc1` [Example 217] was tested, and the EC50 was 0.1 to 90 nM.
Compound `O=C(Nc1ccc(/C=C/c2ccc(NC(=O)[C@@H]3C=CCN3C(=O)Cc3cccnc3)cc2)cc1)[C@@H]1C=CCN1C(=O)Cc1cccnc1` [Example 218] has an EC50 of 0.1 to 90 nM.
Compound `CC(=O)N1CC=C[C@H]1C(=O)Nc1ccc(/C=C/c2ccc(NC(=O)[C@@H]3C=CCN3C(=O)Cc3cccnc3)cc2)cc1` [Example 219] has an EC50 of 0.1 to 90 nM.
In the case of `CC(=O)N1CC=C[C@H]1C(=O)Nc1ccc(/C=C/c2ccc(NC(=O)[C@@H]3C=CCN3C(=O)Cc3ccncc3)cc2)cc1` [Example 220], the EC50 is reported as 1000 to 10000 nM.
For `O=C(Nc1ccc(/C=C/c2ccc(NC(=O)[C@@H]3C=CCN3C(=O)Cc3ccncc3)cc2)cc1)[C@@H]1C=CCN1C(=O)Cc1ccncc1` [Example 221], the EC50 was 100 to 1000 nM.
Work on `CN(C)[C@H]1C[C@@H](C(=O)Nc2ccc(/C=C/c3ccc(NC(=O)[C@@H]4C[C@H](N(C)C)CN4C(=O)OCc4ccccc4)cc3)cc2)N(C(=O)OCc2ccccc2)C1` [Example 223] yielded an EC50 of 0.1 to 90 nM.
In the case of `CCCOc1ccccc1C(=O)N1C[C@@H](N(C)C)C[C@H]1C(=O)Nc1ccc(CCc2ccc(NC(=O)[C@@H]3C[C@H](N(C)C)CN3C(=O)c3ccccc3OCCC)cc2)cc1` [Example 224], the EC50 is reported as 1000 to 10000 nM.
`CN(C)[C@H]1C[C@@H](C(=O)Nc2ccc(/C=C/c3ccc(NC(=O)[C@@H]4C[C@H](N(C)C)CN4C(=O)Cc4ccccc4)cc3)cc2)N(C(=O)Cc2ccccc2)C1` [Example 225] gave an EC50 of 0.1 to 90 nM.
Compound `CN(C)[C@H]1C[C@@H](C(=O)Nc2ccc(/C=C/c3ccc(NC(=O)[C@@H]4C[C@H](N(C)C)CN4C(=O)[C@H]4CCCO4)cc3)cc2)N(C(=O)[C@H]2CCCO2)C1` [Example 226] has an EC50 of 100 to 1000 nM.
For `CCCOc1ccccc1C(=O)N1C[C@@H](N(C)C)C[C@H]1C(=O)Nc1ccc(/C=C/c2ccc(NC(=O)[C@@H]3C[C@H](N(C)C)CN3C(=O)c3ccccc3OCCC)cc2)cc1` [Example 227], the EC50 was 1000 to 10000 nM.
Work on `CCc1ccccc1C(=O)N1C[C@@H](N(C)C)C[C@H]1C(=O)Nc1ccc(/C=C/c2ccc(NC(=O)[C@@H]3C[C@H](N(C)C)CN3C(=O)c3ccccc3CC)cc2)cc1` [Example 228] yielded an EC50 of 1000 to 10000 nM.
For `CN(C)[C@H]1C[C@@H](C(=O)Nc2ccc(/C=C/c3ccc(NC(=O)[C@@H]4C[C@H](N(C)C)CN4C(=O)c4ccccc4NCc4ccccc4)cc3)cc2)N(C(=O)c2ccccc2NCc2ccccc2)C1` [Example 229], the EC50 was 1000 to 10000 nM.
`O=C(Nc1ccc(/C=C/c2ccc(NC(=O)[C@@H]3CCCN3C(=O)c3ncccc3-c3ccc(Cl)cc3)cc2)cc1)[C@@H]1CCCN1C(=O)c1ncccc1-c1ccc(Cl)cc1` [Example 230] showed an EC50 of 100 to 1000 nM.
`CCOc1cccc(-c2cccnc2C(=O)N2CCC[C@H]2C(=O)Nc2ccc(/C=C/c3ccc(NC(=O)[C@@H]4CCCN4C(=O)c4ncccc4-c4cccc(OCC)c4)cc3)cc2)c1` [Example 231] showed an EC50 of 1000 to 10000 nM.
`O=C(Nc1ccc(/C=C/c2ccc(NC(=O)[C@@H]3CCCN3C(=O)c3ncccc3-c3cccc(Cl)c3)cc2)cc1)[C@@H]1CCCN1C(=O)c1ncccc1-c1cccc(Cl)c1` [Example 232] showed an EC50 of 1000 to 10000 nM.
`Cc1cccc(-c2cccnc2C(=O)N2CCC[C@H]2C(=O)Nc2ccc(/C=C/c3ccc(NC(=O)[C@@H]4CCCN4C(=O)c4ncccc4-c4cccc(C)c4)cc3)cc2)c1` [Example 233] was tested, and the EC50 was 1000 to 10000 nM.
With `CCC/C=C/c1cccnc1C(=O)N1CCC[C@H]1C(=O)Nc1ccc(/C=C/c2ccc(NC(=O)[C@@H]3CCCN3C(=O)c3ncccc3/C=C/CCC)cc2)cc1` [Example 235] the EC50 was 1000 to 10000 nM.
`O=C(Nc1ccc(/C=C/c2ccc(NC(=O)[C@@H]3CCCN3C(=O)c3ccccc3C3=CCCC3)cc2)cc1)[C@@H]1CCCN1C(=O)c1ccccc1C1=CCCC1` [Example 237] showed an EC50 of 1000 to 10000 nM.
In the case of `C=Cc1ccccc1C(=O)N1CCC[C@H]1C(=O)Nc1ccc(/C=C/c2ccc(NC(=O)[C@@H]3CCCN3C(=O)c3ccccc3C=C)cc2)cc1` [Example 238], the EC50 is reported as 1000 to 10000 nM.
With `Cc1ccc(-c2ccccc2C(=O)N2CCC[C@H]2C(=O)Nc2ccc(/C=C/c3ccc(NC(=O)[C@@H]4CCCN4C(=O)c4ccccc4-c4ccc(C)s4)cc3)cc2)s1` [Example 239] the EC50 was 1000 to 10000 nM.
`CN(C(=O)[C@@H]1CCCN1C(=O)OCc1ccccc1)c1ccc(/C=C/c2ccc(N(C)C(=O)[C@@H]3CCCN3C(=O)OCc3ccccc3)cc2)cc1` [Example 244] gave an EC50 of 1000 to 10000 nM.
For `CCC(C)NC(=O)O[C@@H]1C[C@@H](C(=O)Nc2ccc(/C=C/c3ccc(NC(=O)[C@@H]4C[C@@H](O)CN4C(=O)OCc4ccccc4)cc3)cc2)N(C(=O)OCc2ccccc2)C1` (stereo partly drawn) [Example 245], the EC50 was 1000 to 10000 nM.
`CC(C)NC(=O)O[C@@H]1C[C@@H](C(=O)Nc2ccc(/C=C/c3ccc(NC(=O)[C@@H]4C[C@@H](O)CN4C(=O)OCc4ccccc4)cc3)cc2)N(C(=O)OCc2ccccc2)C1` [Example 246] was tested, and the EC50 was 1000 to 10000 nM.
For `CC(C)(C)NC(=O)O[C@@H]1C[C@@H](C(=O)Nc2ccc(/C=C/c3ccc(NC(=O)[C@@H]4C[C@@H](O)CN4C(=O)OCc4ccccc4)cc3)cc2)N(C(=O)OCc2ccccc2)C1` [Example 247], the EC50 was 1000 to 10000 nM.
`O=C(NC1CCCC1)O[C@@H]1C[C@@H](C(=O)Nc2ccc(/C=C/c3ccc(NC(=O)[C@@H]4C[C@@H](O)CN4C(=O)OCc4ccccc4)cc3)cc2)N(C(=O)OCc2ccccc2)C1` [Example 248] was tested, and the EC50 was 1000 to 10000 nM.
For `CCC(C)NC(=O)O[C@@H]1C[C@@H](C(=O)Nc2ccc(/C=C/c3ccc(NC(=O)[C@@H]4C[C@@H](OC(=O)NC(C)CC)CN4C(=O)OCc4ccccc4)cc3)cc2)N(C(=O)OCc2ccccc2)C1` (stereo partly drawn) [Example 249], the EC50 was 1000 to 10000 nM.
